Consider one sequence from US20230321187A1, “OCTOPUS-DERIVED PEPTIDE OCTOPROMYCIN HAVING ANTIBACTERIAL AND ANTI-BIOFILM ACTIVITY AGAINST ACINETOBACTER BAUMANNII” (priority 2020, published 2023).

“Also recorded” adds a separate entry of the source. Where no end group is shown, it is not given here. Where only a bound is given, the exact number is not on record here.

Data set [1] concerns A. baumannii. Nature of the data set: H2DCF-DA assay of ROS production. The settings on record: MIC (50 μg/mL) and MBC (200 μg/mL), 10 hours. The format is cell-based, Acinetobacter baumannii. As to the method: To further examine a mode of action of octopromycin related to endogenous ROS production in A. baumannii by octopromycin, H2DCF-DA assay was performed. The accumulation of ROS in A. baumannii was quantified using fluorescent probe carboxy-H2DCF-DA (Invitrogen, USA). An A. baumannii culture solution (OD-0.25, 5×10^6 CFU/mL) was treated with octopromycin (MIC; 50 μg/mL and MBC; 200 μg/mL) and cultured at 25° C. for 10 hours, and then, cells were harvested by centrifugation at 5000 rpm for 2 minutes. To detect ROS levels, the cells were stained with H2DCF-DA (100 μg/mL) and cultured at room temperature (24±1° C.) for 30 minutes and then centrifuged at 5000 rpm for 2 minutes. The cells were washed with ×1 PBS and dichloro-fluorescein (DCF) fluorescence was measured using CLSM (LSMS Live Configuration Variotwo VRGB, Zeiss, Germany) at an excitation wavelength of 488 nm and an emission wavelength of 535 nm.

For data set [2], the system named is A. baumannii. The format is cell-based. As to conditions: Acinetobacter baumannii, 24 h, 200 μg/mL. The method, then: A. baumannii was cultured in TSB (OD-0.25, 2.5 x 10^6 CFU/mL) and treated with octopromycin at various concentrations (0, 25, 50, 75, 100, 150, and 200 μg/mL). After culturing for 24 hours in a shaking incubator at 180 rpm at 25° C., A. baumannii was centrifuged at 3500 rpm for 10 minutes, and the cells were washed with PBS. For cell viability assay, A. baumannii cells reacted with 20 μL of an MTT reagent (Sigma Aldrich, USA) for 30 minutes, and the samples were resuspended in dimethylsulfoxide (Sigma Aldrich, USA). The cell viability was measured based on OD at 570 nm using a microplate reader (Bio-Rad, Saint Louis, USA).

A short description of data set [3]: MTT cytotoxicity assay in HEK293 cells. The format is cell-based, human. As to conditions: HEK293T cells. As to the method: (§1) To measure the cytotoxicity of octopromycin on HEK293T (American Type Culture Collection ATCC-11268) and Raw 264.7 cells, the cells were treated with octopromycin and cell viability was evaluated. The cells were harvested, counted and seeded at a density of […] per well in a 96-well plate and cultured for 24 hours at 37° C. and 5% CO2. The cells were treated with different concentrations of octopromycin (0 to 800 μg/mL) and cultured for 24 hours. After culturing, the culture medium was replaced with a fresh medium, and 10 μL of MTT (5 mg/mL) was added to each well and incubated in a CO2 incubator for 4 hours. The formed formazan crystals were dissolved in 50 μL of DMSO and absorbance was measured at 570 nm using a microplate reader (Bio-Rad Laboratories, Inc, USA). Cells treated with the medium (control) were considered as 100% viability (control group), and current viability was normalized and calculated for the untreated control group.
A general note: Tetrazolium dyes change colour on reduction, which living cells bring about.

A further data set deals with HEK293T cells. Nature of the data set: MTT cytotoxicity assay in HEK293 cells. The format is cell-based, human. As to the method:
as §1

Data set [4] deals with A. baumannii. In words: FE-SEM analysis of morphological and ultrastructural changes. As to conditions: MIC (50 μg/mL) and MBC (200 μg/mL), 9 hours. The format is cell-based, Acinetobacter baumannii. As to the method:
To understand a mode of action of octopromycin, FE-SEM analysis was performed at MIC and MBC concentrations to estimate the ultrastructure changes of A. baumannii.
First, A. baumannii cells were treated with octopromycin at MIC (50 μg/mL) and MBC (200 μg/mL) for 9 hours. As a negative control group, an untreated A. baumannii culture solution was used, and all other steps were performed identically for the sample. Subsequently, the culture solution was centrifuged at 3500 rpm […] and the pellet was washed with phosphate saline buffer PBS and prefixed with 2.5% glutaraldehyde for 30 minutes. Then, the prefixed cells were washed with PBS and continuously dehydrated using ethanol (30, 50, 70, 80, 90, and 100%). The fixed cells were dried and coated with platinum using an ion sputter (E-1030, Hitachi, Japan).

The next data set deals with zebrafish embryos. In words: Zebrafish embryo toxicity (mortality and teratogenicity). The format is in vivo. As to the method:
Wild-type (AB) adult zebrafish was maintained in an automated water circulation system at 28° C. under a photoperiod of 14 h (light): 10 h (dark). After zebrafish (to 4 months of age) was mated, embryos were collected at a 1 hours post fertilization (1 hpf) stage and rinsed with embryo water. First, the viability of newly fertilized embryos was identified under a stereoscopic microscope (Nikon, SMZ1000, Japan) before use in experiments. To determine toxicity levels at 24, 48, 72, and 96 hours after exposure, embryos at stages 1-2 hpf were exposed to various concentrations of octopromycin (0 to 8 μg/mL) for 96 hours.
In addition, to evaluate in vivo toxicity, the cumulative mortality of developing zebrafish embryos for 96 hours was calculated at octopromycin exposure (0, 0.25, 0.50, 1.00, 2.00, 4.00, and 8.00 μg/mL). […] However, concentration-dependent mortality patterns occurred by an increase in octopromycin concentration.

The next data set has as its system A. baumannii biofilm. In words: Eradication of already formed biofilm (crystal violet staining). As to conditions: 24 hours after treatment. The format is cell-based, Acinetobacter baumannii. As to the method:
Next, the effect of octopromycin on biofilm eradication in A. baumannii was confirmed. To measure the eradication effect of the already formed biofilm, 100 μL of A. baumannii (5×10^5 CFU/mL) was cultured in TSB for 24 hours. The culture medium was removed and the wells were carefully washed with PBS to eradicate planktonic bacteria. The wells were added with octopromycin (50 μg/mL (MIC) and 200 μg/mL (MBC)) and further cultured for 24 hours. The biofilm was stained with crystal violet for 30 minutes, washed three times with PBS, and dissolved in 95% ethanol, and the absorbance was measured at 495 nm using a microplate reader (Bio-Rad, USA).

Regarding “RRLIRTDTGPIIYDYFKDQLLKKGMVILRESMKNLKGM [octopromycin]”, in the data set on A. baumannii [1], the ROS level entry is given as “increased in a concentration-dependent manner; also recorded: increased the production of reactive oxygen species”. Besides, in the data set with A. baumannii [2], the “cell viability of A. baumannii” value is on record as 1.54%. The viability at 24 h in data set [3] (human embryonic kidney 293T, concentration not given, read-out: cells alive) is no less than 85%. Also, in data set [3] (human, HEK293, 400 μg/mL, 24 hours, read-out: cell viability), the viability at 24 h, 400 µg/mL came out at 85%. In addition, the cell viability entry in the data set on HEK293T cells (HEK293, >400 μg/mL) is recorded as “significantly reduced”. Further, in the data set with HEK293T cells (HEK293, MBC level (200 μg/mL)), the toxic effect entry was “no toxic effect”. Further, the “morphological and ultrastructural changes (FE-SEM)” value with A. baumannii [4] is “severe membrane destruction; also recorded: caused ultrastructural cell wall deformation”. Moreover, the embryo mortality result is “no embryo mortality” in the data set on zebrafish embryos (0.25 μg/mL, 96 hours exposure) and 100% with zebrafish embryos (8.0 μg/mL, 24 hpe). Further, the “toxicity to zebrafish embryos” value with zebrafish embryos (4 μg/mL) was “not toxic”. Besides, the maximum non-lethal concentration with zebrafish embryos (zebrafish embryos, no abnormal appearance) worked out at 4 µg/mL. In addition, the “reduction in biofilm (eradication)” value with A. baumannii biofilm (MBC (200 μg/mL)) was found to be 64.2%; in the data set on A. baumannii biofilm (MIC (50 μg/mL)) it was 64.0%.
